# Columns and labels:
# Rattus norvegicus [1] = species on record: Rattus norvegicus; format: toxicity, organism-based, Sprague-Dawley; conditions: in vivo, po, 1200 mg/kg, 24 h, route oral GAVAGE, dose level High, time 1 day, vehicle .5 % CMC
# Description: DrugMatrix - Regimen: Single
# Rattus norvegicus [2] = species on record: Rattus norvegicus; experiment: DrugMatrix - Regimen: Daily Repeat; format: toxicity, organism-based, Sprague-Dawley; set-up: regimen Daily Repeat, gender Male, age 6-8 weeks; conditions: in vivo, po, 1200 mg/kg, 72 h, route oral GAVAGE, dose level High, time 3 day, vehicle .5 % CMC
compound,measurement,setting,value
Nc1ccc(Cl)cc1[N+](=O)[O-] [4-CHLORO-2-NITROANILINE],ABSOLUTE EOSINOPHIL,Rattus norvegicus [1]; tissue Blood,51.67 CELLS/uL
same,ABSOLUTE LYMPHOCYTE,Rattus norvegicus [1]; tissue Blood,11963.33 CELLS/uL
same,ABSOLUTE MONOCYTE,Rattus norvegicus [1]; tissue Blood,476.67 CELLS/uL
same,ABSOLUTE SEGMENTED NEUTROPHIL,Rattus norvegicus [1]; tissue Blood,1508.33 CELLS/uL
same,BASOPHIL,Rattus norvegicus [1]; tissue Blood,0%
same,EOSINOPHIL,Rattus norvegicus [1]; tissue Blood,0.33%
same,ERYTHROCYTE COUNT,Rattus norvegicus [1]; tissue Blood,5.85 x10E6/uL
same,HEMATOCRIT,Rattus norvegicus [1]; tissue Blood,35.7%
same,HEMOGLOBIN,Rattus norvegicus [1]; tissue Blood,12.97 G/DL
same,LEUKOCYTE COUNT,Rattus norvegicus [1]; tissue Blood,14 x10E3/uL
same,LYMPHOCYTE,Rattus norvegicus [1]; tissue Blood,85.67%
same,MEAN CORPUSCULAR HEMOGLOBIN,Rattus norvegicus [1]; tissue Blood,22.17 pg
same,MEAN CORPUSCULAR HEMOGLOBIN CONCENTRATION,Rattus norvegicus [1]; tissue Blood,36.3 G/DL
same,MEAN CORPUSCULAR VOLUME,Rattus norvegicus [1]; tissue Blood,61.07 fL
same,MONOCYTE,Rattus norvegicus [1]; tissue Blood,3.33%
same,NEUTROPHIL,Rattus norvegicus [1]; tissue Blood,10.67%
same,NUCLEATED RED BLOOD CELLS,Rattus norvegicus [1]; tissue Blood,0 /100WBC
same,PLATELET COUNT,Rattus norvegicus [1]; tissue Blood,1137 x10E3/uL
same,ALANINE AMINOTRANSFERASE,Rattus norvegicus [1]; tissue Plasma,71.67 u/L
same,ALBUMIN,Rattus norvegicus [1]; tissue Plasma,4.2 G/DL
same,ALKALINE PHOSPHATASE,Rattus norvegicus [1]; tissue Plasma,484 u/L
same,ASPARTATE AMINOTRANSFERASE,Rattus norvegicus [1]; tissue Plasma,114 u/L
same,BLOOD UREA NITROGEN,Rattus norvegicus [1]; tissue Plasma,15 mg/dL
same,CARBON DIOXIDE,Rattus norvegicus [1]; tissue Plasma,23.33 mmol/L
same,CHLORIDE,Rattus norvegicus [1]; tissue Plasma,101.33 MEQ/L
same,CHOLESTEROL,Rattus norvegicus [1]; tissue Plasma,86.33 mg/dL
same,CREATININE,Rattus norvegicus [1]; tissue Plasma,0.27 mg/dL
same,GLUCOSE,Rattus norvegicus [1]; tissue Plasma,219 mg/dL
same,LACTATE DEHYDROGENASE,Rattus norvegicus [1]; tissue Plasma,411.33 u/L
same,LIPASE,Rattus norvegicus [1]; tissue Plasma,10 u/L
same,PHOSPHORUS,Rattus norvegicus [1]; tissue Plasma,14.33 mg/dL
same,POTASSIUM,Rattus norvegicus [1]; tissue Plasma,6.09 MEQ/L
same,SODIUM,Rattus norvegicus [1]; tissue Plasma,142.83 MEQ/L
same,TOTAL BILIRUBIN,Rattus norvegicus [1]; tissue Plasma,0.2 mg/dL
same,TOTAL PROTEIN,Rattus norvegicus [1]; tissue Plasma,6.2 G/DL
same,URIC ACID,Rattus norvegicus [1]; tissue Plasma,2.73 mg/dL
same,ABSOLUTE BASOPHIL,Rattus norvegicus [2]; tissue Blood,0 CELLS/uL
same,ABSOLUTE EOSINOPHIL,Rattus norvegicus [2]; tissue Blood,170.33 CELLS/uL
same,ABSOLUTE LYMPHOCYTE,Rattus norvegicus [2]; tissue Blood,8812.67 CELLS/uL
same,ABSOLUTE MONOCYTE,Rattus norvegicus [2]; tissue Blood,210.67 CELLS/uL
same,ABSOLUTE SEGMENTED NEUTROPHIL,Rattus norvegicus [2]; tissue Blood,673 CELLS/uL
same,BASOPHIL,Rattus norvegicus [2]; tissue Blood,0%
same,EOSINOPHIL,Rattus norvegicus [2]; tissue Blood,1.67%
same,ERYTHROCYTE COUNT,Rattus norvegicus [2]; tissue Blood,6.64 x10E6/uL
same,HEMATOCRIT,Rattus norvegicus [2]; tissue Blood,39.73%
same,HEMOGLOBIN,Rattus norvegicus [2]; tissue Blood,14.83 G/DL
same,LEUKOCYTE COUNT,Rattus norvegicus [2]; tissue Blood,9.87 x10E3/uL
same,LYMPHOCYTE,Rattus norvegicus [2]; tissue Blood,89%
same,MEAN CORPUSCULAR HEMOGLOBIN,Rattus norvegicus [2]; tissue Blood,22.33 pg
same,MEAN CORPUSCULAR HEMOGLOBIN CONCENTRATION,Rattus norvegicus [2]; tissue Blood,37.37 G/DL
same,MEAN CORPUSCULAR VOLUME,Rattus norvegicus [2]; tissue Blood,59.8 fL
same,MONOCYTE,Rattus norvegicus [2]; tissue Blood,2.33%
same,NEUTROPHIL,Rattus norvegicus [2]; tissue Blood,7%
same,NUCLEATED RED BLOOD CELLS,Rattus norvegicus [2]; tissue Blood,0.33 /100WBC
same,PLATELET COUNT,Rattus norvegicus [2]; tissue Blood,873.33 x10E3/uL
same,ALANINE AMINOTRANSFERASE,Rattus norvegicus [2]; tissue Plasma,82.67 u/L
same,ALBUMIN,Rattus norvegicus [2]; tissue Plasma,4.53 G/DL
same,ALKALINE PHOSPHATASE,Rattus norvegicus [2]; tissue Plasma,464.33 u/L
same,ASPARTATE AMINOTRANSFERASE,Rattus norvegicus [2]; tissue Plasma,89.67 u/L
same,BLOOD UREA NITROGEN,Rattus norvegicus [2]; tissue Plasma,17 mg/dL
same,CARBON DIOXIDE,Rattus norvegicus [2]; tissue Plasma,36.67 mmol/L
same,CHLORIDE,Rattus norvegicus [2]; tissue Plasma,100 MEQ/L
same,CHOLESTEROL,Rattus norvegicus [2]; tissue Plasma,91.67 mg/dL
same,CREATININE,Rattus norvegicus [2]; tissue Plasma,0.24 mg/dL
same,GLUCOSE,Rattus norvegicus [2]; tissue Plasma,126.33 mg/dL
same,LACTATE DEHYDROGENASE,Rattus norvegicus [2]; tissue Plasma,78.67 u/L
same,LIPASE,Rattus norvegicus [2]; tissue Plasma,10 u/L
same,PHOSPHORUS,Rattus norvegicus [2]; tissue Plasma,11.83 mg/dL
same,POTASSIUM,Rattus norvegicus [2]; tissue Plasma,6.36 MEQ/L
same,SODIUM,Rattus norvegicus [2]; tissue Plasma,147.57 MEQ/L
same,TOTAL BILIRUBIN,Rattus norvegicus [2]; tissue Plasma,0.23 mg/dL
same,TOTAL PROTEIN,Rattus norvegicus [2]; tissue Plasma,6.73 G/DL
same,URIC ACID,Rattus norvegicus [2]; tissue Plasma,1.37 mg/dL

# — ChEMBL document CHEMBL3885881, “DrugMatrix”
